# Experimental data from PMC4871321 (Angewandte Chemie (Weinheim an Der Bergstrasse, Germany), 2015).
# Target: T1, BRD4(1) (Homo sapiens, UniProt O60885)
# T1 construct: first bromodomain
# Test: biochemical
# Parameters: differential scanning fluorimetry, SYPRO Orange, shift of melting temperature of 2 uM bromodomain
# Details: read-out: BRD4(1) ΔTm (°C)
row,Structure (SMILES),ΔTm at 10 µM
1,"Cc1cc(=O)n(C)c2cc(N3C(=O)CC[C@H](NC(=O)OC(C)(C)C)[C@H]3C)ccc12 (relative stereo) [compound 21, 21]",0.33 °C
2,"Cc1cc(=O)n(C)c2cc(N3C[C@@H](NC(=O)OC(C)(C)C)[C@H](C)CC3=O)ccc12 (relative stereo) [compound 22, 22]",0.19 °C
